Measured values reported in patent US20250019385A1, “SPIROCYCLIC ANNULATED 2-AMINO-3-CYANO THIOPHENES AND DERIVATIVES FOR THE TREATMENT OF CANCER” (Boehringer Ingelheim International GmbH, priority 2023, published 2025).
Values after ≈ are worked out from the molar mass of the structure shown.

biological target: KRAS (G12C)::SOS1 protein-protein interaction (Homo sapiens (Human), UniProt P01116, C118S/C51S/C80L/G12C); test: KRAS::SOS1 AlphaScreen binding assay (KRAS G12C); conditions: GDP
Description: This assay can be used to examine the potency with which compounds according to the invention binding to (mutated) KRAS inhibit the protein-protein interaction between SOS1 and (mutated) KRAS e.g. KRAS G12C, KRAS G12D. […] Low IC50 values in this assay setting are indicative of strong inhibition of protein-protein interaction between SOS1 and KRAS:
These assays measure the inhibitory effect of compounds on KRAS mutant protein-protein interactions using the Alpha Screen technology by Perkin Elmer.
The following (mutant) enzyme forms of KRAS and interacting proteins are used in these assays at the given concentrations:
KRAS (G12C) 1-169, N-terminal 6His-tag for purification, cleaved off, C-terminal avi-tag, biotinylated, mutations: C51S, C80L, C118S (in house); final assay concentration 7.5 nM and SOS1 564-1049, N-terminal 229 GST-tag, TEV cleavage site (Viva Biotech Ltd); final assay concentration 5 nM;
Test compounds dissolved in DMSO are dispensed onto assay plates (Proxiplate 384 PLUS, white, PerkinElmer; 6008289) using an Access Labcyte Workstation with the Labcyte Echo 55x. For the chosen highest assay concentration of 100 μM, 150 nL of compound solution are transferred from a 10 mM DMSO compound stock solution. A series of eleven fivefold dilutions per compound are transferred to the assay plate, compound dilutions are tested in duplicates. DMSO are added as backfill to a total volume of 150 nL.
The assays run on a fully automated robotic system in a darkened room below 100 Lux. To 150 nl of compound dilution 10 μl of a mix including KRAS mutant protein, SOS1 (final assay concentrations see above) and GDP nucleotide (Sigma G7127; final assay concentration 10 μM) in assay buffer (1×PBS, 0.1% BSA, 0.05% Tween 20) are added into columns 1-24.
After 30 minutes incubation time 5 μl of Alpha Screen bead mix in assay buffer are added into columns 1-23. Bead mix consists of AlphaLISA Glutathione Acceptor Beads (PerkinElmer, Cat No AL109) and AlphaScreen Streptavidin Donor Beads (PerkinElmer Cat No 6760002) in assay buffer at a final assay concentration of 10 μg/mL each.
Plates are kept at room temperature in a darkened incubator. After an additional 60 minutes incubation time the signal is measured in a PerkinElmer Envision HTS Multilabel Reader using the AlphaScreen specs from PerkinElmer.
Each plate contains up to 16 wells of a negative control depending on the dilution procedure (platewise or serial) (DMSO instead of test compound; with KRAS mutant::SOS1 GOP mix and bead mix; column 23) and 16 wells of a positive control (DMSO instead of test compound; with KRAS mutant::SOS1 GOP mix w/o bead mix; column 24).
As internal control known inhibitors of KRAS mutant::SOS1 interaction can be measured on each compound plate.
IC50 values are calculated and analyzed with Boehringer Ingelheim's MEGALAB C50 application using a 4 parametric logistic model.
Tables of example compounds disclosed herein contain IC50 values determined using the above assays (see Table 43).

Sequence of KRAS (G12C)::SOS1 protein-protein interaction (P01116 other isoform, or with tags, fused parts or gaps G12C/C51S/C80L/C118S): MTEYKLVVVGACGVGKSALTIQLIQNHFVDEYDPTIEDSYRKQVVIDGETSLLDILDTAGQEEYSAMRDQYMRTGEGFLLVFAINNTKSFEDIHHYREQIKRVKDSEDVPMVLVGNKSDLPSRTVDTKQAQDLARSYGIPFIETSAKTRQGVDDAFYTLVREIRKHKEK

Row | Structure (SMILES) | IC50
1 | CO[C@@H]1C[C@@H]([C@H](C)Oc2nc(-c3onc4c3CCC[C@@]43CCCc4sc(N)c(C#N)c43)nc3c2n(C)c(=O)n3[C@@H]2CCOC2)N(C)C1 [I-3] | 1 nM
2 | CO[C@H]1C[C@@H](n2c(=O)n(C)c3c(O[C@@H](C)[C@@H]4CCCN4C)nc(-c4onc5c4CCC[C@@]54CCCc5sc(N)c(C#N)c54)nc32)C1 [I-31] | 2 nM
3 | C[C@H](Oc1nc(-c2onc3c2CCC[C@@]32CCCc3sc(N)c(C#N)c32)nc2c1n(C)c(=O)n2[C@@H]1CCOC1)[C@@H]1C[C@@H](F)CN1C [I-22] | 1 nM
4 | C[C@H](Oc1nc(-c2onc3c2CCC[C@@]32CCCc3sc(N)c(C#N)c32)nc2c1n(C)c(=O)n2[C@@H]1CCOC1)[C@@H]1[C@@H](F)CCN1C [I-5] | 1 nM
5 | C[C@H](Oc1nc(-c2onc3c2CCC[C@@]32CCCc3sc(N)c(C#N)c32)nc2c1n(C)c(=O)n2[C@@H]1CCOC1)[C@@H]1C[C@H](F)CN1C [I-27] | 2 nM
6 | CC(C)n1c(=O)n([C@@H]2CCOC2)c2nc(-c3onc4c3CCC[C@@]43CCCc4sc(N)c(C#N)c43)nc(O[C@@H](C)[C@@H]3CCCN3C)c21 [I-32] | 2 nM

tested on: MKN1 cells; test: MKN1 CTG proliferation assay (120 h) (gastric cancer, wt amplified); format: cell-based; conditions: Homo sapiens, MKN-1
Protocol: MKN1 cells (JCRB0252) are dispensed into black 384-well plates, flat and clear bottom (Greiner, PNr. 781091) at a density of 200 cells per well in 60 μl RPMI-1640 ATCC-Formulation (Gibco #A10491)+10% FCS (fetal calf serum, HyClone, SH30084.03). Cells are incubated overnight at 37° C. in a humidified tissue culture incubator at 5% CO2. Compounds (10 mM stock in DMSO) are added at logarithmic dose series using the ECHO acoustic liquid handler system (Beckman Coulter), normalizing for added DMSO and including DMSO controls. All compound treatments are performed in technical duplicates. For the TO time point measurement, untreated cells are analyzed at the time of compound addition. Plates are incubated for 120 h, and cell viability is measured using CellTiter-Glo luminescent cell viability reagent (Promega product code G7570). Viability (stated as percent of control) is defined as relative luminescence units RLU of each well divided by the RLU of cells in DMSO controls. IC50 values are determined from viability measurements by non-linear regression using a four-parameter model.
IC50 values of representative compounds according to the invention measured with these assays in the indicated cell lines are presented in Table 46.

Row | Structure (SMILES) | IC50
7 | CO[C@@H]1C[C@@H]([C@H](C)Oc2nc(-c3onc4c3CCC[C@@]43CCCc4sc(N)c(C#N)c43)nc3c2n(C)c(=O)n3[C@@H]2CCOC2)N(C)C1 [I-3] | 22 nM
8 | CO[C@H]1C[C@@H](n2c(=O)n(C)c3c(O[C@@H](C)[C@@H]4CCCN4C)nc(-c4onc5c4CCC[C@@]54CCCc5sc(N)c(C#N)c54)nc32)C1 [I-31] | 987 nM
9 | C[C@H](Oc1nc(-c2onc3c2CCC[C@@]32CCCc3sc(N)c(C#N)c32)nc2c1n(C)c(=O)n2[C@@H]1CCOC1)[C@@H]1C[C@@H](F)CN1C [I-22] | 14 nM
10 | C[C@H](Oc1nc(-c2onc3c2CCC[C@@]32CCCc3sc(N)c(C#N)c32)nc2c1n(C)c(=O)n2[C@@H]1CCOC1)[C@@H]1[C@@H](F)CCN1C [I-5] | 113 nM
11 | C[C@H](Oc1nc(-c2onc3c2CCC[C@@]32CCCc3sc(N)c(C#N)c32)nc2c1n(C)c(=O)n2[C@@H]1CCOC1)[C@@H]1C[C@H](F)CN1C [I-27] | 126 nM
12 | CC(C)n1c(=O)n([C@@H]2CCOC2)c2nc(-c3onc4c3CCC[C@@]43CCCc4sc(N)c(C#N)c43)nc(O[C@@H](C)[C@@H]3CCCN3C)c21 [I-32] | 429 nM

biological target: KRAS (G12D)::SOS1 protein-protein interaction (Homo sapiens (Human), UniProt P01116, G12D); test: KRAS::SOS1 AlphaScreen binding assay (KRAS G12D); conditions: GDP
Sequence (P01116 other isoform, or with tags, fused parts or gaps G12D): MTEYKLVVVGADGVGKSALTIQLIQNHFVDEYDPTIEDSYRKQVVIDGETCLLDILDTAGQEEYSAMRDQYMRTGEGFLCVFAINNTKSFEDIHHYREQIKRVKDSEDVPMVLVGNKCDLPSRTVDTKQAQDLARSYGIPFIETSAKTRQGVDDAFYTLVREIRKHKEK
Summary of the method: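 AlphaScreen assay with KRAS G12D (1-169, 6His/avi-tagged, 10 nM), GST-SOS1 564-1049 (5 nM) and GDP (10 μM) in PBS, 0.1% BSA, 0.05% Tween 20; compound up to 100 μM top concentration, eleven fivefold dilutions in duplicate. After 30 min, glutathione acceptor and streptavidin donor beads (10 μg/mL each) were added and signal read after a further 60 min at room temperature in the dark; IC50 from 4-parameter logistic fit.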

Row | Structure (SMILES) | IC50
13 | CO[C@@H]1C[C@@H]([C@H](C)Oc2nc(-c3onc4c3CCC[C@@]43CCCc4sc(N)c(C#N)c43)nc3c2n(C)c(=O)n3[C@@H]2CCOC2)N(C)C1 [I-3] | 1 nM
14 | CO[C@H]1C[C@@H](n2c(=O)n(C)c3c(O[C@@H](C)[C@@H]4CCCN4C)nc(-c4onc5c4CCC[C@@]54CCCc5sc(N)c(C#N)c54)nc32)C1 [I-31] | 1 nM
15 | C[C@H](Oc1nc(-c2onc3c2CCC[C@@]32CCCc3sc(N)c(C#N)c32)nc2c1n(C)c(=O)n2[C@@H]1CCOC1)[C@@H]1C[C@@H](F)CN1C [I-22] | 2 nM
16 | C[C@H](Oc1nc(-c2onc3c2CCC[C@@]32CCCc3sc(N)c(C#N)c32)nc2c1n(C)c(=O)n2[C@@H]1CCOC1)[C@@H]1[C@@H](F)CCN1C [I-5] | 2 nM
17 | C[C@H](Oc1nc(-c2onc3c2CCC[C@@]32CCCc3sc(N)c(C#N)c32)nc2c1n(C)c(=O)n2[C@@H]1CCOC1)[C@@H]1C[C@H](F)CN1C [I-27] | 2 nM
18 | CC(C)n1c(=O)n([C@@H]2CCOC2)c2nc(-c3onc4c3CCC[C@@]43CCCc4sc(N)c(C#N)c43)nc(O[C@@H](C)[C@@H]3CCCN3C)c21 [I-32] | 2 nM

tested on: not listed separately; test: Solubility measurement (DMSO solution precipitation method); format: physicochemical; conditions: aqueous buffer, kinetic from dmso stock, McIlvaine buffer pH 4.5, 24 h, read-out: solubility pH 4.5
Summary of the method: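 A 10 mM DMSO stock was diluted to 250 μM final in McIlvaine buffer at pH 4.5 or 6.8, then shaken 24 h at ambient temperature. After filtering off precipitate, filtrate concentration was quantified by LC-UV against a fully dissolved reference in acetonitrile/water (1:1).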

Row | Structure (SMILES) | solubility at 24 h
19 | CO[C@@H]1C[C@@H]([C@H](C)Oc2nc(-c3onc4c3CCC[C@@]43CCCc4sc(N)c(C#N)c43)nc3c2n(C)c(=O)n3[C@@H]2CCOC2)N(C)C1 [I-3] | > 0.157 mg/mL
20 | CO[C@H]1C[C@@H](n2c(=O)n(C)c3c(O[C@@H](C)[C@@H]4CCCN4C)nc(-c4onc5c4CCC[C@@]54CCCc5sc(N)c(C#N)c54)nc32)C1 [I-31] | > 0.158 mg/mL
21 | C[C@H](Oc1nc(-c2onc3c2CCC[C@@]32CCCc3sc(N)c(C#N)c32)nc2c1n(C)c(=O)n2[C@@H]1CCOC1)[C@@H]1C[C@@H](F)CN1C [I-22] | > 0.154 mg/mL
22 | C[C@H](Oc1nc(-c2onc3c2CCC[C@@]32CCCc3sc(N)c(C#N)c32)nc2c1n(C)c(=O)n2[C@@H]1CCOC1)[C@@H]1[C@@H](F)CCN1C [I-5] | > 0.15 mg/mL
23 | C[C@H](Oc1nc(-c2onc3c2CCC[C@@]32CCCc3sc(N)c(C#N)c32)nc2c1n(C)c(=O)n2[C@@H]1CCOC1)[C@@H]1C[C@H](F)CN1C [I-27] | > 0.153 mg/mL
24 | CC(C)n1c(=O)n([C@@H]2CCOC2)c2nc(-c3onc4c3CCC[C@@]43CCCc4sc(N)c(C#N)c43)nc(O[C@@H](C)[C@@H]3CCCN3C)c21 [I-32] | > 0.155 mg/mL

same assay, conditions: aqueous buffer, kinetic from dmso stock, McIlvaine buffer pH 6.8, 24 h, read-out: solubility pH 6.8

Row | Structure (SMILES) | solubility at 24 h
25 | CO[C@@H]1C[C@@H]([C@H](C)Oc2nc(-c3onc4c3CCC[C@@]43CCCc4sc(N)c(C#N)c43)nc3c2n(C)c(=O)n3[C@@H]2CCOC2)N(C)C1 [I-3] | 0.077 mg/mL (≈ 117 µM)
26 | CO[C@H]1C[C@@H](n2c(=O)n(C)c3c(O[C@@H](C)[C@@H]4CCCN4C)nc(-c4onc5c4CCC[C@@]54CCCc5sc(N)c(C#N)c54)nc32)C1 [I-31] | > 0.148 mg/mL
27 | C[C@H](Oc1nc(-c2onc3c2CCC[C@@]32CCCc3sc(N)c(C#N)c32)nc2c1n(C)c(=O)n2[C@@H]1CCOC1)[C@@H]1C[C@@H](F)CN1C [I-22] | 0.012 mg/mL (≈ 18.5 µM)
28 | C[C@H](Oc1nc(-c2onc3c2CCC[C@@]32CCCc3sc(N)c(C#N)c32)nc2c1n(C)c(=O)n2[C@@H]1CCOC1)[C@@H]1[C@@H](F)CCN1C [I-5] | 0.002 mg/mL (≈ 3.08 µM)
29 | C[C@H](Oc1nc(-c2onc3c2CCC[C@@]32CCCc3sc(N)c(C#N)c32)nc2c1n(C)c(=O)n2[C@@H]1CCOC1)[C@@H]1C[C@H](F)CN1C [I-27] | 0.009 mg/mL (≈ 13.9 µM)
30 | CC(C)n1c(=O)n([C@@H]2CCOC2)c2nc(-c3onc4c3CCC[C@@]43CCCc4sc(N)c(C#N)c43)nc(O[C@@H](C)[C@@H]3CCCN3C)c21 [I-32] | 0.063 mg/mL (≈ 95.6 µM)
